Experimental findings from patent US6610729B1, “Hydroxamic acid derivatives and medicinal utilization thereof” (Mitsubishi Pharma Corporation, priority 1998, dated 2003) are described below.

Usually IC50 stands for the point on the concentration scale where inhibition reaches its midpoint. As a reminder, the solubility is the dissolved amount per volume that the medium holds. Read a high solubility as much dissolved substance.

Series [1] has as its system release of TNF α from THP-1 cells. Briefly: Inhibitory activity of TNF α release from THP-1 cells (LPS, ELISA). The format is cell-based. The note with it: 3 hr, 37° C., TNF α by ELISA. The protocol:
The inhibitory effect of each compound (compounds of Examples 1, 2, 3, 6, 35, 39 and 44) on the release of TNF α from THP-1 cells which are monocyte cultured cells [see Nature 370, 218-220 (1994)] was investigated.
The THP-1 cells were suspended to a concentration of 1×10 ^6 cells/ml in RPMI1640 medium supplemented with 10% fetal calf serum (FCS) and dispensed by 100 μl. A 2 μg/ml LPS was prepared with RPMI1640 medium supplemented with 10% FCS. Each compound (dissolved in dimethyl sulfoxide) was diluted 500-fold with the LPS solution.
The diluted solutions of these compounds were added to the dispensed cell suspensions by 100 μl and allowed for 3 hr to react under the conditions of 37° C., 5% CO2. After the completion of the reaction, the reaction mixture was centrifuged and the culture supernatant was collected. The TNF α amount was quantitatively measured by ELISA (enzyme-linked immunosorbent assay). The TNF α release inhibitory effect by each compound was calculated from the proportion of released TNF α amount of the compound addition group relative to that of the compound non-addition group.
In general terms: ELISA stands for enzyme-linked immunosorbent assay.

Series [2] is described as follows: Solubility in saline (0.9% aqueous sodium chloride solution) at 25° C. The format is physicochemical. The note with it: for solubility: saline or isotonic. The method, then:
The solubility of the Example compounds of the present invention in saline (0.9% aqueous sodium chloride solution) at 25° C. was measured.

Series [3] has as its system release of TNF α from LPS treated human whole blood. Briefly: Inhibitory activity of TNF α release from LPS treated human whole blood (ELISA). The format is cell-based. The note with it: LPS treated human whole blood diluted 4-fold, 24 hr, 37° C., TNF α by ELISA. The protocol:
The inhibitory effect of each compound (compounds of Examples 2, 6, 7, 10, 11, 37, 147, 231 and 245) on the release of TNF α from LPS treated human whole blood [see: Lymphokine Res 8, 141-146 (1989)] was investigated.
Human whole blood was diluted 4-fold with RPMI1640 medium supplemented with 10% FCS. The diluted blood was dispensed to a 96 multi-well plate by 100 μl and equilibrated under the conditions of 37° C., 5% CO2. LPS (2 μg/ml) was prepared with RPMI1640 medium supplemented with 10% FCS and a culture broth prepared by dissolving each compound (dissolved in dimethyl sulfoxide) in the LPS solution was added by 100 μl/well (final concentrated of dimethyl sulfoxide 0.1%), which was followed by incubation for 24 hr (37° C., 5% CO2). After the incubation, the reaction mixture was centrifuged (1,500 rpm, 5 min). The culture supernatant (40 μl/well) was collected, and TNF α amount in the supernatant was quantitatively measured by ELISA. The TNF α release inhibitory effect by each compound was calculated from the proportion of release TNF α amount of the compound addition group relitive to that of the compound non-addition group.

Counter-ions that a name gives are not always drawn.

Take `CC(C)C[C@@H](C(=O)N[C@@H](Cc1ccc(NC(=N)N)cc1)C(=O)c1ccco1)C(CN1C(=O)c2ccccc2C1=O)C(=O)NO` (single isomer, unassigned) [Example 3, 3(R)-[1(S)-(2-Furyl)carbonyl-2-(4-guanidinophenyl)]ethylcarbamoyl-5-methyl-2(R or S)-phthalimidomethylhexanohydroxamic Acid Hydrochloride]: in series [1] (Homo sapiens), inhibition was half-maximal at 190 nM (IC50). On to `CC(C)C[C@@H](C(=O)N[C@@H](Cc1ccc(OCCN(C)C)cc1)C(=O)c1ccco1)C(CN1C(=O)N(C)C(C)(C)C1=O)C(=O)NO.Cl` (single isomer, unassigned) [Example 5, 3(R)-[2-[4-(2-Dimethylaminoethoxy)phenyl]-1(S)-(2-furyl)carbonyl]ethylcarbamoyl-5-methyl-2(R or S)-(2,5-dioxo-3,4,4-trimethyl-1-imidazolidinyl)methylhexanohydroxamic Acid Hydrochloride], for which the solubility in series [2] is > 20 mg/mL.

As to `CC(C)C[C@@H](C(=O)N[C@@H](Cc1ccc(S(=O)(=O)[O-])cc1)C(=O)c1ccco1)C(Cc1cccc2ccccc12)C(=O)NO.[Na+]` (single isomer, unassigned) [Example 8, Sodium Salt of 3(R)-[1(S)-(2-Furyl)carbonyl-2-(4-sulfophenyl)ethylcarbamoyl]-5-methyl-2(R or S)-(1-naphthylmethyl)hexanohydroxamic Acid], in series [2], the solubility was > 20 mg/mL. Regarding `CC(C)C[C@@H](C(=O)N[C@H](C(=O)c1ccc(OCCN(C)C)cc1)C(C)(C)C)C(CCCc1ccccc1)C(=O)NO.Cl` (single isomer, unassigned) [Example 88, 3(R)-[2,2-dimethyl-1(S)-[4-(2-dimethylaminoethoxy)benzoyl]]propylcarbamoyl-5-methyl-2(R or S)-(3-phenylpropyl)hexanohydroxamic acid hydrochloride], in series [2], the “Solubility, saline” value came out at 5 mg/mL.

For the molecule `CC(C)C[C@@H](C(=O)N[C@H](C(=O)c1ccc(OCCN(C)C)cc1)C(C)(C)C)C(CN1C(=O)c2ccccc2C1=O)C(=O)NO.Cl` (single isomer, unassigned) [Example 39, 3(R)-[2,2-Dimethyl-1(S)-[4-(2-dimethylaminoethoxy)benzoyl]]propylcarbamoyl-5-methyl-2(R or S)-phthalimidomethylhexanohydroxamic Acid Hydrochloride], 300 nM corresponded to half-maximal inhibition in series [1] (IC50). For the same molecule, the “Solubility, saline” value in series [2] was >20 mg/mL. As to `CC(C)C[C@@H](C(=O)N[C@H](C(=O)c1ccc(OCCN(C)C)cc1)C(C)(C)C)C(CN1C(=O)N(C)C(C)(C)C1=O)C(=O)NO.Cl` (single isomer, unassigned) [Example 147, 3(R)-[2,2-Dimethyl-1(S)-[4-(2-dimethylaminoethoxy)benzoyl]]propylcarbamoyl-5-methyl-2(R or S)-(2,5-dioxo-3,4,4-trimethyl-1-imidazolidinyl)methylhexanohydroxamic Acid Hydrochloride], the IC50 in series [3] was 2290 nM. The “Solubility, saline” value in series [2] is >20 mg/mL. In turn, `CC(C)C[C@@H](C(=O)N[C@@H](Cc1ccc(S(=O)(=O)[O-])cc1)C(=O)c1ccco1)C(CN1Cc2ccccc2C1=O)C(=O)NO.[Na+]` (single isomer, unassigned) [Example 11, Sodium Salt of 3(R)-[1(S)-(2-Furyl)carbonyl-2-(4-sulfophenyl)ethylcarbamoyl]-5-methyl-2(R or S)-(1-oxoisoindolin-2-ylmethyl)hexanohydroxamic Acid] had an IC50 in series [3] of 1730 nM. The solubility in series [2] is > 20 mg/mL. Turning to `CC(C)C[C@@H](C(=O)N[C@@H](Cc1ccccc1)C(=O)c1ccc(CO)o1)C(CN1C(=O)N(C)C(C)(C)C1=O)C(=O)NO` (single isomer, unassigned) [Example 245, 3(R)-[1(S)-[2-(5-Hydroxymethyl)furyl]carbonyl-2-phenyl]ethylcarbamoyl-5-methyl-2(R or S)-(2,5-dioxo-3,4,4-trimethyl-1-imidazolidinyl)methylhexanohydroxamic Acid], the concentration for half-maximal inhibition (IC50) in series [3] turned out to be 3740 nM. The molecule `CC(C)C[C@@H](C(=O)N[C@@H](Cc1ccccc1)C(=O)c1ccc(OCCN(C)C)cc1)C(CCCc1ccccc1)C(=O)NO.Cl` (single isomer, unassigned) [Example 35, 3(R)-[1(S)-[4-(2-Dimethylaminoethoxy)benzoyl]-2-phenyl]ethylcarbamoyl-5-methyl-2(R or S)-(3-phenylpropyl)hexanohydroxamic Acid Hydrochloride] displayed an IC50 in series [1] of 140 nM. In addition, in series [2], the “Solubility, saline” value is >20 mg/mL. As to `CC(C)C[C@@H](C(=O)N[C@@H](Cc1ccccc1)C(=O)c1ccc(OCCN2CCN(C)CC2)cc1)C(CN1C(=O)c2ccccc2C1=O)C(=O)NO` (single isomer, unassigned) [Example 1, 5-Methyl-3(R)-[1(S)-[4-[2-[1-(4-methyl)piperazinyl]ethoxy]benzoyl]-2-phenyl]ethylcarbamoyl-2(R or S)-phthalimidomethylhexanohydroxamic Acid Dihydrochloride], the IC50 in series [1] (Homo sapiens) is 270 nM. Moreover, the solubility in series [2] is > 10 mg/mL. Take `CC(C)C[C@@H](C(=O)N[C@@H](Cc1ccc(S(=O)(=O)[O-])cc1)C(=O)c1ccco1)C(Cc1ccc2ccccc2c1)C(=O)NO.[Na+]` (single isomer, unassigned) [Example 7, Sodium Salt of 3(R)-[1(S)-(2-Furyl)carbonyl-2-(4-sulfophenyl)ethylcarbamoyl]-5-methyl-2(R or S)-(2-naphthylmethyl)hexanohydroxamic Acid]: the 50% inhibitory concentration (IC50) in series [3] was found to be 2460 nM. In addition, in series [2], the solubility was > 20 mg/mL. The corresponding values for `CC(C)C[C@@H](C(=O)N[C@@H](Cc1ccc(S(=O)(=O)[O-])cc1)C(=O)c1ccco1)C(CN1C(=O)c2ccccc2C1=O)C(=O)NO.[Na+]` (single isomer, unassigned) [Example 10, Sodium Salt of 3(R)-[1(S)-(2-Furyl)carbonyl-2-(4-sulfophenyl)ethylcarbamoyl]-5-methyl-2(R or S)-phthalimidomethylhexanohydroxamic Acid] are 1700 nM and 10 mg/mL.

For `CC(C)C[C@@H](C(=O)N[C@@H](Cc1ccccc1)C(=O)c1ccc(OCCN(C)C)cc1)C(CN1C(=O)N(C)C(C)(C)C1=O)C(=O)NO.Cl` (single isomer, unassigned) [Example 37, 3(R)-[1(S)-[4-(2-Dimethylaminoethoxy)benzoyl]-2-phenyl]ethylcarbamoyl-5-methyl-2(R or S)-(2,5-dioxo-3,4,4-trimethyl-1-imidazolidinyl)methylhexanohydroxamic Acid Hydrochloride], in series [3], 3470 nM corresponded to half-maximal inhibition (IC50). The “Solubility, saline” value in series [2] was >20 mg/mL. For the molecule `CC(C)C[C@@H](C(=O)N[C@@H](Cc1ccc(OS(=O)(=O)[O-])cc1)C(=O)c1ccco1)C(CN1C(=O)N(C)C(C)(C)C1=O)C(=O)NO.[Na+]` (single isomer, unassigned) [Example 84, Sodium Salt of 3(R)-[1(S)-(2-Furyl)carbonyl-2-[4-(hydroxysulfonyloxy)phenyl]]ethylcarbamoyl-5-methyl-2(R or S)-(2,5-dioxo-3,4,4-trimethyl-1-imidazolidinyl)methylhexanohydroxamic Acid], the “Solubility, saline” value in series [2] was >20 mg/mL. In the case of `CC(C)C[C@@H](C(=O)N[C@@H](Cc1ccc(S(=O)(=O)[O-])cc1)C(=O)c1ccco1)C(Cc1ccccc1)C(=O)NO.[Na+]` (single isomer, unassigned) [Example 9, Sodium Salt of 2(R or S)-Benzyl-3(R)-[1(S)-(2-furyl)carbonyl-2-(4-sulfophenyl)ethylcarbamoyl]-5-methylhexanohydroxamic Acid], in series [2], the solubility was > 20 mg/mL. Regarding `CC(C)C[C@@H](C(=O)N[C@@H](Cc1ccc(OCCN(C)C)cc1)C(=O)c1ccco1)C(CCCc1ccccc1)C(=O)NO` (single isomer, unassigned) [Example 44, 3(R)-[2-[4-(2-dimethylaminoethoxy)phenyl]-1(S)-(2-furyl)carbonyl]ethylcarbamoyl-5-methyl-2(R or S)-(3-phenylpropyl)hexanohydroxamic acid hydrochloride], the half-inhibitory concentration (IC50) in series [1] is 420 nM.
